This is an account of results in patent US7262212B2, “2,3-dihydro-6-nitroimidazo[2,1-b]oxazoles” (Otsuka Pharmaceutical Co., Ltd., priority 2002, dated 2007).

The structures appear in SMILES notation.

System in one series: not given
Details: not given
In general, melting point refers to the temperature, or range, at which the solid turns liquid. Compound `CC1(CN2CCN(c3nc4ccccc4o3)CC2)Cn2cc([N+](=O)[O-])nc2O1` (stereo not drawn) displayed a melting point of 228 to 229.5 °C.

Take `C[C@]1(COC(=O)N2CCN(N=Cc3ccc(C(F)(F)F)cc3)CC2)Cn2cc([N+](=O)[O-])nc2O1`: the melting point was 176 to 178 °C.

For `CC1(Cn2nc(CCc3ccc(Cl)cc3)oc2=O)Cn2cc([N+](=O)[O-])nc2O1` (stereo not drawn), the melting point lay in the range of 139 to 140 °C.

The compound `C[C@]1(CN2CCC(N3CCCCC3)CC2)Cn2cc([N+](=O)[O-])nc2O1` gave a melting point of 163.4 to 164.9 °C.

Compound `CC1(CCCN2CCN(Cc3ccc(C(F)(F)F)cc3)CC2)Cn2cc([N+](=O)[O-])nc2O1` (stereo not drawn) displayed a melting point of 154 to 156 °C.

For `O=C(CN1CCN(c2nc3ccccc3o2)CC1)N1CCC2(CC1)Cn1cc([N+](=O)[O-])nc1O2`, the melting point was 260 to 263 °C (dec.).

In the case of `O=C(NCc1ccc(OC(F)(F)F)cc1)N1CCC2(CC1)Cn1cc([N+](=O)[O-])nc1O2`, the melting point lay within 223 to 225 °C.

As for `C[C@]1(CO)Cn2cc([N+](=O)[O-])nc2O1`, the melting point was in the range of 162 to 163 °C.

On to `C[C@@]1(CN2CCN(Cc3ccc(C(F)(F)F)cc3)CC2)Cn2cc([N+](=O)[O-])nc2O1`, for which the melting point was 93 to 95 °C.

As to `CC(C)(C)OC(=O)N1CCC2(CC1)Cn1cc([N+](=O)[O-])nc1O2`, the melting point lay within 230 to 232 °C.

Compound `CN(C(=O)N1CCN(C[C@@]2(C)Cn3cc([N+](=O)[O-])nc3O2)CC1)c1ccc(C(F)(F)F)cc1` registered a melting point of 100.4 to 102.4 °C.

For the compound `CC1(CCN2CCN(c3ccccc3)C(=O)C2)Cn2cc([N+](=O)[O-])nc2O1` (stereo not drawn), the melting point was 199 to 202 °C (dec.).

`CN(CCCOc1ccc(OC(F)(F)F)cc1)C[C@@]1(C)Cn2cc([N+](=O)[O-])nc2O1` returned a melting point of 92 to 95 °C.

For the compound `CC1(CN2CCN(C(=O)OCC#Cc3ccc(C(F)(F)F)cc3)CC2)Cn2cc([N+](=O)[O-])nc2O1.O=C(O)/C=C\C(=O)O` (stereo not drawn), the melting point is 166 °C (dec.).

The compound `C[C@]1(CN2CCN(C3CCN(C(=O)OCc4ccc(OC(F)(F)F)cc4)CC3)CC2)Cn2cc([N+](=O)[O-])nc2O1` returned a melting point of 105 to 106 °C.

Compound `O=[N+]([O-])c1cn2c(n1)O[C@@H](CN1CCN(c3ccc(C(F)(F)F)cc3)CC1)C2` gave a melting point of 175.8 to 176.6 °C.

`C[C@]1(CN2CCN(C3CCN(Cc4ccc(Cl)cc4)CC3)CC2)Cn2cc([N+](=O)[O-])nc2O1`: the melting point lay within 168 to 169 °C.

Turning to `O=C(Nc1ccc(F)cc1)N1CCC2(CC1)Cn1cc([N+](=O)[O-])nc1O2`, the melting point was 238 to 240 °C (dec.).

In the case of `O=C(NCc1ccccc1)N1CCC2(CC1)Cn1cc([N+](=O)[O-])nc1O2`, the melting point is 244 to 247 °C (dec.).

With `O=[N+]([O-])c1cn2c(n1)O[C@@H](CN1CCN(Cc3ccc(C(F)(F)F)cc3)CC1)C2`, the melting point was 149 to 150 °C.

For the compound `C[C@]1(CN2CCN(Cc3ccc(C(F)(F)F)cc3)CC2)Cn2cc([N+](=O)[O-])nc2O1`, the melting point lay in the range of 110 to 112 °C.

Regarding `C[C@]1(CN2CCc3ccccc3C2)Cn2cc([N+](=O)[O-])nc2O1`, the melting point fell in the range of 153 to 155.3 °C.

`CC1(COC(=O)N2CC=C(c3ccc(C(F)(F)F)cc3)CC2)Cn2cc([N+](=O)[O-])nc2O1` (stereo not drawn): the melting point fell in the range of 113 to 115 °C.

On to `CN(c1ccc(OC(F)(F)F)cc1)C1CCN(C[C@@]2(C)Cn3cc([N+](=O)[O-])nc3O2)CC1`, for which the melting point fell in the range of 133.2 to 134.4 °C.

Take `CN(CC1Cn2cc([N+](=O)[O-])nc2O1)C(=O)OCc1ccc(F)cc1` (stereo not drawn): the melting point lay in the range of 124.5 to 128.1 °C.

In turn, `CC(C)(C)OC(=O)N1CCN(CCCC2(C)Cn3cc([N+](=O)[O-])nc3O2)CC1` (stereo not drawn) gave a melting point of 166 to 167 °C.

In the case of `C[C@]1(CN2CCN(S(=O)(=O)CCc3ccc(Cl)cc3)CC2)Cn2cc([N+](=O)[O-])nc2O1`, the melting point lay within 192 to 193 °C.

As to `C[C@]1(COc2ccc(C(=O)N3CCN(C(=O)OCc4ccc(OC(F)(F)F)cc4)CC3)cc2)Cn2cc([N+](=O)[O-])nc2O1`, the melting point fell in the range of 168.5 to 172 °C.

In the case of `CC1(CN2CCC(Oc3ccc(OC(F)(F)F)cc3)CC2)Cn2cc([N+](=O)[O-])nc2O1` (stereo not drawn), the melting point is 117 to 119 °C.

`CC1(CN2CCC(C(=O)c3ccc(C(F)(F)F)cc3)CC2)Cn2cc([N+](=O)[O-])nc2O1` (stereo not drawn) had a melting point of 172 to 174 °C.

As to `CC1(CN2CCN(C(=S)Nc3ccc(Cl)cc3)CC2)Cn2cc([N+](=O)[O-])nc2O1` (stereo not drawn), the melting point was 204 to 206 °C (dec.).

`CC1(CCN2CCN(C(=O)OCc3ccc(C(F)(F)F)cc3)CC2)Cn2cc([N+](=O)[O-])nc2O1` (stereo not drawn): the melting point is 139 to 140 °C.

In the case of `C[C@]1(CN2CCC(NC(=O)OC3CCN(c4ccc(C(F)(F)F)cc4)CC3)CC2)Cn2cc([N+](=O)[O-])nc2O1`, the melting point fell in the range of 134.4 to 136.9 °C.

`CN(C)c1ccc(C(=O)N2CCN(CC3(C)Cn4cc([N+](=O)[O-])nc4O3)CC2)cc1` (stereo not drawn) came in with a melting point of 204 to 207 °C.

`CC(C)(C)OC(=O)N1CCN(C(=O)c2ccc(OC[C@@]3(C)Cn4cc([N+](=O)[O-])nc4O3)cc2)CC1` registered a melting point of 222.5 to 224 °C.

As for `CC(C)(C)OC(=O)c1ccc(NC(=O)N2CCC3(CC2)Cn2cc([N+](=O)[O-])nc2O3)cc1`, the melting point is greater than 300 °C.

`CN(CCOc1ccc(C(F)(F)F)cc1)C[C@@]1(C)Cn2cc([N+](=O)[O-])nc2O1` showed a melting point of 123 to 126 °C.

On to `O=C(OCc1ccc(C(F)(F)F)cc1)N1CCC2(CC1)Cn1cc([N+](=O)[O-])nc1O2`, for which the melting point is 189 to 190 °C.

For the compound `CN(Cc1ccc(N(C)C)cc1)C[C@@]1(C)Cn2cc([N+](=O)[O-])nc2O1`, the melting point lay in the range of 168 to 169 °C.

For `C[C@]1(COc2ccc(C3=CCN(Cc4ccc(OC(F)(F)F)cc4)CC3)cc2)Cn2cc([N+](=O)[O-])nc2O1`, the melting point lay in the range of 168 to 174 °C.

In turn, `C[C@]1(CN2CCN(c3cccnc3)CC2)Cn2cc([N+](=O)[O-])nc2O1` returned a melting point of 145 to 147.7 °C.

Turning to `C[C@]1(CN2CCN(C(=O)N3C=CC(c4ccc(Cl)cc4)=CC3)CC2)Cn2cc([N+](=O)[O-])nc2O1`, the melting point lay within 156 to 159 °C.

For `O=[N+]([O-])c1cn2c(n1)O[C@@H](COc1ccc(N3CCC(Oc4ccc(OC(F)(F)F)cc4)CC3)cc1)C2`, the melting point was 157 to 160 °C.

For `CC1(CSc2nnnn2-c2ccccc2)Cn2cc([N+](=O)[O-])nc2O1` (stereo not drawn), the melting point lay within 140 to 147 °C.

`CC1(CN2CCN(C(=O)c3ccc(-c4ccccc4)cc3)CC2)Cn2cc([N+](=O)[O-])nc2O1` (stereo not drawn) registered a melting point of 116 to 118 °C.

Regarding `CC1(Cn2c(=O)n(-c3ccc(F)cc3)c3ccccc32)Cn2cc([N+](=O)[O-])nc2O1` (stereo not drawn), the melting point lay within 254.1 to 254.7 °C.

Consider `CC1(CN2CCC(Oc3ccc(C(F)(F)F)cc3)CC2)Cn2cc([N+](=O)[O-])nc2O1` (stereo not drawn), for which the melting point is 113 to 114 °C.

For the compound `C[C@]1(CN2CCC(OCCc3ccc(Cl)cc3)CC2)Cn2cc([N+](=O)[O-])nc2O1`, the melting point was 92.5 to 94 °C.

For the compound `CC1(CNC(=O)OCc2ccc(F)cc2)Cn2cc([N+](=O)[O-])nc2O1` (stereo not drawn), the melting point was in the range of 200.4 to 202.1 °C.

For `Cn1c(=O)n(CC2(C)Cn3cc([N+](=O)[O-])nc3O2)c2cc(C(F)(F)F)ccc21` (stereo not drawn), the melting point lay in the range of 232.4 to 234.7 °C.

`C[C@]1(CN2CCN(C(=O)OCC=Cc3ccc(C(F)(F)F)cc3)CC2)Cn2cc([N+](=O)[O-])nc2O1` displayed a melting point of 132 to 133 °C.

`CC1(CN2CCN(C(=O)Nc3cccc(C(F)(F)F)c3)CC2)Cn2cc([N+](=O)[O-])nc2O1` (stereo not drawn): the melting point was 183 to 184 °C.

For the compound `C[C@]1(CN2CC=C(c3ccccc3)CC2)Cn2cc([N+](=O)[O-])nc2O1`, the melting point fell in the range of 200.1 to 201 °C.

As to `O=C(CN1CCN(C(=O)OCc2ccc(OC(F)(F)F)cc2)CC1)N1CCC2(CC1)Cn1cc([N+](=O)[O-])nc1O2`, the melting point was 137 to 139 °C.

`C[C@]1(CN2CCC(OCC=Cc3ccccc3)CC2)Cn2cc([N+](=O)[O-])nc2O1` yielded a melting point of 91.3 to 92.7 °C.

Regarding `CC1(COc2ccc(OC(F)(F)F)cc2)Cn2cc([N+](=O)[O-])nc2O1` (stereo not drawn), the melting point fell in the range of 126.8 to 127.9 °C.

Compound `C[C@]1(CN2CCC(OCC=Cc3ccc(Cl)cc3)CC2)Cn2cc([N+](=O)[O-])nc2O1` returned a melting point of 140.6 to 142.8 °C.

Regarding `O=[N+]([O-])c1cn2c(n1)O[C@@H](CN1CCN(Cc3ccc(-c4ccccc4)cc3)CC1)C2`, the melting point was in the range of 207 to 208 °C.

The compound `O=[N+]([O-])c1cn2c(n1)O[C@H](CN1CCN(Cc3ccc(C(F)(F)F)cc3)CC1)C2` yielded a melting point of 141 to 143 °C.

In the case of `CC1(CN2CCN(C(=O)OCc3ccccc3)CC2)Cn2cc([N+](=O)[O-])nc2O1.Cl` (stereo not drawn), the melting point lay in the range of 130.5 to 132.1 °C.

For `C[C@]1(CN2CCN(C(=O)OCC=Cc3ccc(OC(F)(F)F)cc3)CC2)Cn2cc([N+](=O)[O-])nc2O1`, the melting point was in the range of 91 to 93 °C.

`Cc1nc(-c2ccc(Cl)cc2)sc1CN1CCN(C[C@@]2(C)Cn3cc([N+](=O)[O-])nc3O2)CC1` had a melting point of 174.3 to 175.5 °C.

For the compound `CN(CCOc1ccc(OC(F)(F)F)cc1)C[C@@]1(C)Cn2cc([N+](=O)[O-])nc2O1`, the melting point was 112.5 to 115 °C.

With `COc1ccc(NC(=S)N2CCN(CC3(C)Cn4cc([N+](=O)[O-])nc4O3)CC2)cc1` (stereo not drawn), the melting point was 189 to 191 °C (dec.).

Consider `CC1(COc2ccc(C3CCN(Cc4ccc(OC(F)(F)F)cc4)CC3)cc2)Cn2cc([N+](=O)[O-])nc2O1` (stereo not drawn), for which the melting point fell in the range of 160.6 to 161.1 °C.

Another series deals with Mycobacterium tuberculosis (H37Rv strain). Particulars: cited from earlier work.
Regarding `CCC1Cn2cc([N+](=O)[O-])nc2O1` (stereo not drawn) [CGI-17341], the bactericidal action result was “has a bactericidal action”.

A further series concerns M. avium. Conditions: used at 250 μg/ml or less; cited from earlier work.
As for `CCC1Cn2cc([N+](=O)[O-])nc2O1` (stereo not drawn) [CGI-17341], the activity entry is “does not have the activity”.

The test system of the next series is M. intracellulare. Particulars: used at 250 μg/ml or less; cited from earlier work.
`CCC1Cn2cc([N+](=O)[O-])nc2O1` (stereo not drawn) [CGI-17341]: the activity result is given as “does not have the activity”.

For another series, the system named is M. fortuitum. Conditions: used at 250 μg/ml or less; cited from earlier work.
With `CCC1Cn2cc([N+](=O)[O-])nc2O1` (stereo not drawn) [CGI-17341], the activity result is recorded as “does not have the activity”.
